Assay results reported in US20260048060A1, “POLYCYCLIC THYROID HORMONE b RECEPTOR AGONIST AND USE THEREOF” (CASCADE PHARMACEUTICALS, INC., priority 2022, published 2026).

How the values were obtained:
THRβ [1] = target: T1, THRβ (Homo sapiens, UniProt P10828); assay: Time-resolved FRET (THR-FRET) agonist activity assay, GST-tagged THRβ LBD with SRC2 polypeptide; type: biochemical; settings: ratio of THR-FRET EC50 values THRα/THRβ
T1 construct: made in house; host or cells: E. coli BL21 (DE3)
T1 sequence (P10828 217-461 limits assumed): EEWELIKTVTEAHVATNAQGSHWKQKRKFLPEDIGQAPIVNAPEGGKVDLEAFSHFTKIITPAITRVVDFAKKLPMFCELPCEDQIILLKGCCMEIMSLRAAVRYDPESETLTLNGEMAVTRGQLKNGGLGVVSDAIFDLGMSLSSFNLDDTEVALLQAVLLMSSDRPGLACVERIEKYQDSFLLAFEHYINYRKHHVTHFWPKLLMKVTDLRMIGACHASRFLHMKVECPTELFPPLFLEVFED
Source text: Experimental Example 2: Detection of Agonist Activities of Compounds Against THRα/β Based on Time-Resolved Fluorescence Resonance Energy Transfer (THR-FRET)
By visiting NCBI, the THRα/β LBD domain sequences were found. The pET21-His-GST-dLBT-THRα LBD and pET21-His-GST-dLBT-THRβ LBD overexpression vectors were constructed by the fusion method, and sequenced to confirm the accuracy of the sequences.
The correctly sequenced THRα LBD and THRβ LBD overexpression vectors were transfected into E. coli cells BL21 (DE3), and spread on an agar plate with ampicillin. Monoclones were picked out and amplified in an LB medium, and transferred into 1 L LB at a ratio of 1:100 for large-scale culture. When the OD value was at 0.8 to 1.2, 0.5 mM isopropyl-beta-D-thiogalactopyranoside (IPTG) was added, and induced overnight at 18° C. The bacteria were harvested, disrupted, and purified via the GST column and the molecular sieve to obtain two proteins His-GST-dLBT-THRα LBD and His-GST-dLBT-THRβ LBD.
The proteins were taken out from a refrigerator at −80° C. The proteins with the GST-tagged THRα/β LBD domain and the Eu-labelled GST antibodies were thawed slowly on ice, and an assay buffer containing a final concentration of 5 mM dithiothreitol (DTT) was formulated.
The starting concentration of the compound was 100 μM (in DMSO). The compound (100 μM in DMSO) was subjected to 3-fold isogradient dilution with DMSO to obtain a total of 11 isogradient concentrations. Subsequently, the above compounds at the isogradient concentration were further subjected to 50-fold dilution with an assay buffer containing 5 mM DTT.
The final concentrations of all components were calculated based on a system with a final volume of 20 μL per well. To 18 μL of assay buffer containing 5 mM DTT, the GST-tagged THRα/β proteins, the SRC2 ([…]) polypeptide, XL665 (Cisobio, #610SAXLB), and the Eu-labeled GST antibody were added, and the final concentrations were 2 nM, 200 nM, 0.05 nM, and 7.6 nM respectively to formulate 18 μL of reaction mixture of the proteins, polypeptide, and antibody per well.
18 μL of reaction mixture and 2 μL of diluted compound were added into an optiplate-384-well plate, and reacted at room temperature for 24 h.
The plate was read using an MD i3X multi-mode microplate reader with the excitation and emission wavelengths of 340 nm and 665 nm, respectively. The intensity of light at a wavelength of 616 nm generated by europium excited by 340 nm wavelength light from the MD i3X multi-mode microplate reader was used as the background. According to the different activation degrees of different compounds against THRα and THRβ, the intensity of the emission light at a wavelength of 665 nm generated by exciting XL665 with the exciting light at a wavelength of 616 nm was varied. The intensity ratio between these two light wavelengths (665 nm, 616 nm) was used as the activation activity of the compound against THRα or THRβ, and the ratio in the solvent DMSO group was used for normalization. The dose-response curve was fitted with four parameters using the GraphPad Prism 6.0 software, and the EC50 value was calculated.

THRβ [2] = target: T2, THRβ (Homo sapiens, UniProt P10828); assay: Reporter gene (GAL4-THRβ-LBD / Dual-Glo luciferase) agonist activity assay in HEK293T cells; type: cell-based; settings: ratio of reporter gene EC50 values THRα/THRβ
T2 construct: expressed in transfected cells; host or cells: HEK293T
T2 sequence (P10828 217-461): T1 sequence (P10828 217-461 limits assumed)
Source text: Experimental Example 1: Detection of THRα and THRβ Agonist Activities of Compounds Based on Reporter Gene Activity Assay Method
1.1 Construction and Preparation of Plasmids pGAL4-THR-LBD and pG5-Luc
The pGAL4-THRα-LBD and pGAL4-THRβ-LBD plasmids used in the reporter gene assay system were constructed by a conventional molecular cloning method comprising the following main steps: the cDNA sequences of THRα (NM_003250) and THRβ (NM_000461) corresponding to the amino acid sequences of THRα (163-407AA) and THRβ (217-461AA) were inserted into the BamHI and NotI enzyme digestion sites of the pGAL4 vector by the PCR technique respectively to obtain the pGAL4-THRα-LBD and pGAL4-THRβ-LBD plasmids; the pG5-Luc (#E249A) and pRL-TK (#E2241) plasmids were purchased from Promega; the plasmids were transfected into the E. coli DH5α by the CaCl2 method, and after further culture and amplification, the plasmids were purified by Plasmid Extraction Kits (TIANGEN, #D107) to obtain the corresponding plasmid DNAs.
1.2 Co-Transfection of Plasmids into HEK293T Cells and Treatment with Compounds
The HEK293T cells were inoculated into a 96-well plate at a density of 1×10^4/well the day before plasmid transfection. Cell transfection was conducted according to the instructions of the transfection reagent FuGENE® HD (Promega, #E2311). The main steps were as follows: taking one well as an example here, the plasmids pGAL4-THRα-LBD or pGAL4-THRβ-LBD, pG5-Luc, and pRL-TK were added in the proportions of 20 ng, 50 ng, and 5 ng to 10 μL of Opti-MEM™ I medium (Gibco, #11058021) and mixed well; subsequently, 0.25 uL of FuGENE® HD was added, mixed well, and then left at room temperature for 5 min; afterwards, 10 μL of the mixture was added to the cell wells containing 100 μL of culture medium. After cell co-transfection for 6 h, the compound was diluted in a 3-fold gradient with dimethyl sulfoxide at the highest concentration of 1 uM. The compound was added to the cell culture medium at a total of 10 concentrations for treatment for 24 h. There were a total of two duplicate wells for each concentration. Triiodothyronine (T3) was used as the positive control.
1.3 Dual-Glo Luciferase Assay
After the cells were treated with the compound for 24 h, the cells were assayed according to the instructions of Dual-Glo® Luciferase Assay System (Promega, #E2940). The main steps were as follows: 50 μL of culture medium was aspirated from each well and discarded, and then 50 μL of Dual-Glo® Luciferase reagent was added and oscillated at room temperature for 10 min; 80 μL of lysis reaction solution was measured into a white opaque optiPlate-96-well plate, and the luminescence signal value (Firefly-Luc) of the Firefly luciferase was detected using an MD i3x multi-mode microplate reader; 40 μL of Dual-Glo® Stop & Glo® reagent was then added, and oscillated at room temperature for 10 min; the luminescence signal value (Renilla-Luc) of the Renilla luciferase was then detected using an MD i3x multi-mode microplate reader. The Firefly-Luc/Renilla-Luc ratio was used as the activation activity of the compound against THR, and the ratio in the solvent DMSO group was used for normalization; the dose-response curve was fitted with four parameters using the GraphPad Prism6.0 software, and the EC50 value was calculated.

Row | Structure (SMILES) | Selectivity (THRα/THRβ) (THRβ [1]) | Selectivity (THRα/THRβ) (THRβ [2])
1 | CNC(=O)c1ccccc1Oc1c(Cl)cc(-n2ncc(=O)[nH]c2=O)cc1Cl [Compound 114, reference compound] | †† (††: 10 ≥ THRα/β;) | 
2 | CNC(=O)c1ccccc1OCc1c(Cl)cc(-n2nc(C#N)c(=O)[nH]c2=O)cc1Cl [Compound 2] | †† (††: 10 ≥ THRα/β;) | 
3 | N#Cc1nn(-c2cc(Cl)c(CNc3ccccc3C(=O)O)c(Cl)c2)c(=O)[nH]c1=O [Compound 10] | ††† (†††: 20 ≥ THRα/β > 10;) | 
4 | N#Cc1nn(-c2cc(Cl)c(CSc3ccccc3C(=O)O)c(Cl)c2)c(=O)[nH]c1=O [Compound 6] | ††† (†††: 20 ≥ THRα/β > 10;) | 
5 | CNC(=O)c1ccccc1SCc1c(Br)cc(-n2nc(C#N)c(=O)[nH]c2=O)cc1Br [Compound 13] | †† (††: 10 ≥ THRα/β;) | 
6 | CNC(=O)c1ccccc1SCc1c(Br)cc(-n2ncc(=O)[nH]c2=O)cc1Br [Compound 25] | ††† (†††: 20 ≥ THRα/β > 10;) | † (†: 5 ≥ THRα/β;)
7 | NC(=O)c1ccccc1SCc1c(Cl)cc(-n2ncc(=O)[nH]c2=O)cc1Cl [Compound 19] | ††† (†††: 20 ≥ THRα/β > 10;) | 
8 | N#Cc1nn(-c2cc(Cl)c(COc3ccccc3C(N)=O)c(Cl)c2)c(=O)[nH]c1=O [Compound 1] | †† (††: 10 ≥ THRα/β;) | 
9 | O=C(O)c1ccccc1NCc1c(Cl)cc(-n2ncc(=O)[nH]c2=O)cc1Cl [Compound 26] | ††† (†††: 20 ≥ THRα/β > 10;) | 
10 | [2H]C(Oc1ccccc1C(=O)NC)c1c(Br)cc(-n2nc(C(F)F)c(=O)[nH]c2=O)cc1Br (stereo not drawn) [Compound 106] | †† (††: 10 ≥ THRα/β;) | † (†: 5 ≥ THRα/β;)
11 | NC(=O)c1sccc1OCc1c(Cl)cc(-n2ncc(=O)[nH]c2=O)cc1Cl [Compound 45] | †† (††: 10 ≥ THRα/β;) | † (†: 5 ≥ THRα/β;)
12 | O=C(NO)c1ccccc1OCc1c(Cl)cc(-n2ncc(=O)[nH]c2=O)cc1Cl [Compound 42] | †† (††: 10 ≥ THRα/β;) | 
13 | [2H]C(Oc1ccccc1C(=O)NC)c1c(Br)cc(-n2nc(C([2H])(F)F)c(=O)[nH]c2=O)cc1Br (stereo not drawn) [Compound 111] | †† (††: 10 ≥ THRα/β;) | † (†: 5 ≥ THRα/β;)
14 | NC(=O)c1ccccc1OCc1c(Cl)cc(-n2ncc(=O)[nH]c2=O)cc1Cl [Compound 14] | †† (††: 10 ≥ THRα/β;) | † (†: 5 ≥ THRα/β;)
15 | CCNC(=O)c1ccccc1SCc1c(Cl)cc(-n2ncc(=O)[nH]c2=O)cc1Cl [Compound 24] | †† (††: 10 ≥ THRα/β;) | 
16 | Cc1ccc(C(N)=O)c(OCc2c(Cl)cc(-n3ncc(=O)[nH]c3=O)cc2Cl)c1 [Compound 33] | ††† (†††: 20 ≥ THRα/β > 10;) | 
17 | [2H]C([2H])(Oc1ccccc1C(=O)NC)c1c(Br)cc(-n2nc(C(F)F)c(=O)[nH]c2=O)cc1Br [Compound 108] | †† (††: 10 ≥ THRα/β;) | † (†: 5 ≥ THRα/β;)
18 | CNC(=O)c1ccccc1SCc1c(Cl)cc(-n2ncc(=O)[nH]c2=O)cc1Cl [Compound 20] | ††† (†††: 20 ≥ THRα/β > 10;) | 
19 | CNC(=O)c1ccccc1SCc1c(Cl)cc(-n2nc(N)c(=O)[nH]c2=O)cc1Cl [Compound 29] | ††† (†††: 20 ≥ THRα/β > 10;) | † (†: 5 ≥ THRα/β;)
20 | [2H]C([2H])([2H])NC(=O)c1ccccc1OCc1c(Br)cc(-n2nc(C([2H])(F)F)c(=O)[nH]c2=O)cc1Br [Compound 112] | †† (††: 10 ≥ THRα/β;) | † (†: 5 ≥ THRα/β;)
21 | CC(C)NC(=O)c1ccccc1SCc1c(Cl)cc(-n2ncc(=O)[nH]c2=O)cc1Cl [Compound 22] | ††† (†††: 20 ≥ THRα/β > 10;) | 
22 | [2H]C(F)(F)c1nn(-c2cc(Br)c(COc3ccccc3C(=O)NC)c(Br)c2)c(=O)[nH]c1=O [Compound 107] | †† (††: 10 ≥ THRα/β;) | † (†: 5 ≥ THRα/β;)
23 | [2H]C(Oc1ccccc1C(=O)NC([2H])([2H])[2H])c1c(Br)cc(-n2nc(C(F)F)c(=O)[nH]c2=O)cc1Br (stereo not drawn) [Compound 110] | †† (††: 10 ≥ THRα/β;) | † (†: 5 ≥ THRα/β;)
24 | CNC(=O)c1ccccc1NCc1c(Cl)cc(-n2nc(C#N)c(=O)[nH]c2=O)cc1Cl [Compound 9] | †† (††: 10 ≥ THRα/β;) | 
25 | O=C(O)c1ccccc1SCc1c(Cl)cc(-n2ncc(=O)[nH]c2=O)cc1Cl [Compound 18] | ††† (†††: 20 ≥ THRα/β > 10;) | 
26 | CNC(=O)c1ccccc1SCc1c(Cl)cc(-n2nc(C#N)c(=O)[nH]c2=O)cc1Cl [Compound 7] | ††† (†††: 20 ≥ THRα/β > 10;) | 
27 | CNC(=O)c1ccccc1OCc1c(Br)cc(-n2nc(C#N)c(=O)[nH]c2=O)cc1Br [Compound 12] | †† (††: 10 ≥ THRα/β;) | 
28 | N#Cc1nn(-c2cc(Br)c(COc3ccccc3C(N)=O)c(Br)c2)c(=O)[nH]c1=O [Compound 11] | †† (††: 10 ≥ THRα/β;) | 
29 | CNC(=O)c1ccccc1SCc1c(Cl)cc(-n2nc(C(F)F)c(=O)[nH]c2=O)cc1Cl [Compound 55] | †† (††: 10 ≥ THRα/β;) | 
